# Results from PubChem BioAssay AID200 (DTP/NCI, 2004).
# Several values for one entry are separate records, joined by “and”; a condition that tells them apart may be missing. Equal entries are not always repeated. Inconclusive results and toxic doses are left out. Where a SMILES comes first, the peptide text is derived from it. The star is where a group is joined. Cbz = O=C(OCc1ccccc1)*
# Test system: B6C3F1 mice, B16 melanoma ip, median survival T/C
# Test: NCI In Vivo Anticancer Drug Screen. Data for tumor model B16 Melanoma (intraperitoneal) in B6C3F1 mice
# Details: endpoint: median survival time, higher = longer survival
# Summary of the method: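 Antitumor effect was judged in mice with transplanted tumors by dividing the treated group's survival measure by that of vehicle controls.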
# [1] = dose: 25.0 mg/kg/injection, schedule: Q01DX009 (ip), vehicle: saline with Tween-80
# [2] = dose: 50.0 mg/kg/injection, schedule: Q01DX009 (ip), vehicle: saline with Tween-80
# [3] = dose: 100.0 mg/kg/injection, schedule: Q01DX009 (ip), vehicle: saline with Tween-80
# [4] = dose: 200.0 mg/kg/injection, schedule: Q01DX009 (ip), vehicle: saline with Tween-80
# [5] = dose: 400.0 mg/kg/injection, schedule: Q01DX009 (ip), vehicle: saline with Tween-80
# [6] = dose: 12.5 mg/kg/injection, schedule: Q01DX009 (ip), vehicle: saline with Tween-80
# [7] = dose: 12.5 mg/kg/injection, schedule: Q01DX009 (ip), vehicle: saline
# [8] = dose: 25.0 mg/kg/injection, schedule: Q01DX009 (ip), vehicle: saline
# [9] = dose: 50.0 mg/kg/injection, schedule: Q01DX009 (ip), vehicle: saline
# [10] = dose: 100.0 mg/kg/injection, schedule: Q01DX009 (ip), vehicle: saline
# [11] = dose: 100.0 mg/kg/injection, schedule: Q01DX009 (ip), vehicle: Klucel (hydroxypropylcellulose) (HPC)
# [12] = dose: 200.0 mg/kg/injection, schedule: Q01DX009 (ip), vehicle: Klucel (hydroxypropylcellulose) (HPC)
# [13] = dose: 400.0 mg/kg/injection, schedule: Q01DX009 (ip), vehicle: Klucel (hydroxypropylcellulose) (HPC)
# [14] = dose: 50.0 mg/kg/injection, schedule: Q01DX009 (ip), vehicle: Klucel (hydroxypropylcellulose) (HPC)
# [15] = dose: 1.0 mg/kg/injection, schedule: Q01DX009 (ip), vehicle: saline + alcohol
# [16] = dose: 2.0 mg/kg/injection, schedule: Q01DX009 (ip), vehicle: saline + alcohol
structure (smiles),measurement,setting,value
CCOC(=O)c1cn(C)c2c1C(O)=C(C(=O)OC)CC(=O)N2,T/C,[1],92 % of control
same,T/C,[2],96 % of control
same,T/C,[3],96 % of control
same,T/C,[4],96 % of control
same,T/C,[5],92 % of control
O=c1n(CC2CO2)c(=O)n(CC2CO2)c(=O)n1CC1CO1 (centres undefined),T/C,"dose: 3.12 mg/kg/injection, schedule: Q01DX009 (ip), vehicle: saline",121 % of control
same,T/C,"dose: 5.0 mg/kg/injection, schedule: Q01DX009 (ip), vehicle: saline",155 % of control
same,T/C,"dose: 6.25 mg/kg/injection, schedule: Q01DX009 (ip), vehicle: saline with Tween-80",171 % of control
same,T/C,"dose: 6.25 mg/kg/injection, schedule: Q01DX009 (ip), vehicle: suspension in saline",178 % of control and 152 % of control
same,T/C,"dose: 10.0 mg/kg/injection, schedule: Q01DX009 (ip), vehicle: saline",186 % of control
same,T/C,[6],212 % of control and 153 % of control
same,T/C,[7],188 % of control
same,T/C,"dose: 12.5 mg/kg/injection, schedule: Q01DX009 (ip), vehicle: suspension in saline",211 % of control and 172 % of control
same,T/C,"dose: 20.0 mg/kg/injection, schedule: Q01DX009 (ip), vehicle: saline",228 % of control
same,T/C,[1],263 % of control and 197 % of control
same,T/C,[8],205 % of control and 227 % of control and 170 % of control
same,T/C,"dose: 25.0 mg/kg/injection, schedule: Q01DX009 (ip), vehicle: suspension in saline",282 % of control and 235 % of control
same,T/C,"dose: 40.0 mg/kg/injection, schedule: Q01DX009 (ip), vehicle: saline",261 % of control
same,T/C,[2],233 % of control
same,T/C,[9],234 % of control and 172 % of control
same,T/C,"dose: 50.0 mg/kg/injection, schedule: Q01DX009 (ip), vehicle: suspension in saline",255 % of control
same,T/C,[10],191 % of control
CC(C)C(NC(=O)C(Cc1cnc[nH]1)NC(=O)OCc1ccccc1)C(=O)O (stereo not drawn) (Cbz-His-Val-OH; configuration not given here),T/C,[11],94 % of control
same,T/C,[12],102 % of control
same,T/C,[13],102 % of control
O=C(O)CNC(=O)C(CSCc1ccccc1)NC(=O)OCc1ccccc1 (centres undefined),T/C,[14],95 % of control
same,T/C,[2],95 % of control
same,T/C,[11],107 % of control
same,T/C,[3],88 % of control
same,T/C,[12],102 % of control
same,T/C,[4],90 % of control
CCN(CC)c1ccc2[nH]c3c(C(N)=O)cc(=O)c(=O)c=3oc2c1,T/C,[6],96 % of control
same,T/C,[1],112 % of control
O=C(O)CC(NC(=O)CP(=O)(O)O)C(=O)O (centres undefined),T/C,[8],160 % of control
same,T/C,"dose: 37.5 mg/kg/injection, schedule: Q01DX005 (ip), vehicle: saline",121 % of control
same,T/C,"dose: 37.5 mg/kg/injection, schedule: Q01DX005 (iv), vehicle: saline",119 % of control
same,T/C,[9],172 % of control
same,T/C,"dose: 75.0 mg/kg/injection, schedule: Q01DX001 (ip), vehicle: saline",120 % of control
same,T/C,"dose: 75.0 mg/kg/injection, schedule: Q01DX001 (iv), vehicle: saline",110 % of control
same,T/C,"dose: 75.0 mg/kg/injection, schedule: Q01DX005 (iv), vehicle: saline",123 % of control
same,T/C,[10],202 % of control
same,T/C,"dose: 150.0 mg/kg/injection, schedule: Q01DX001 (iv), vehicle: saline",116 % of control
same,T/C,"dose: 150.0 mg/kg/injection, schedule: Q01DX005 (ip), vehicle: saline",178 % of control
same,T/C,"dose: 150.0 mg/kg/injection, schedule: Q01DX005 (iv), vehicle: saline",114 % of control
same,T/C,"dose: 200.0 mg/kg/injection, schedule: Q01DX009 (ip), vehicle: saline",226 % of control
same,T/C,"dose: 300.0 mg/kg/injection, schedule: Q01DX001 (iv), vehicle: saline",115 % of control
same,T/C,"dose: 300.0 mg/kg/injection, schedule: Q01DX005 (ip), vehicle: saline",163 % of control
C=C1C(O)C2(O)OCC34C(CC5C(C)=CC(=O)C(O)C5(C)C23)OC(=O)C(OC(=O)C/C=C/CCCCCCCC)C14 (centres undefined),T/C,"dose: 4.0 mg/kg/injection, schedule: Q01DX009 (ip), vehicle: saline + alcohol",182 % of control
same,T/C,"dose: 5.76 mg/kg/injection, schedule: Q01DX009 (ip), vehicle: saline + Tween-80 + alcohol",160 % of control
same,T/C,"dose: 8.0 mg/kg/injection, schedule: Q01DX009 (ip), vehicle: saline + alcohol",182 % of control
same,T/C,"dose: 9.6 mg/kg/injection, schedule: Q01DX009 (ip), vehicle: saline + Tween-80 + alcohol",197 % of control
same,T/C,"dose: 16.0 mg/kg/injection, schedule: Q01DX009 (ip), vehicle: saline + Tween-80 + alcohol",176 % of control
same,T/C,"dose: 16.0 mg/kg/injection, schedule: Q01DX009 (ip), vehicle: saline + alcohol",192 % of control
CCCCC(NC(=O)OC(C)(C)C)C(=O)O (centres undefined),T/C,[11],97 % of control
same,T/C,[12],111 % of control
same,T/C,[13],90 % of control
O=C(Nc1cccc(Cl)c1)C1CCCC1=Nc1cccc(Cl)c1 (centres undefined),T/C,[2],99 % of control
same,T/C,[3],96 % of control
same,T/C,[4],91 % of control
CCOC(=O)c1[nH]c2cccc3c2c1CC(Br)C3=O (centres undefined),T/C,"dose: 12.0 mg/kg/injection, schedule: Q01DX009 (ip), vehicle: saline with Tween-80",98 % of control
same,T/C,[1],93 % of control
same,T/C,[2],100 % of control
CN(CO)c1nc(N(C)CO)nc(N(C)CO)n1,T/C,[7],113 % of control and 115 % of control
same,T/C,[8],118 % of control
same,T/C,[10],153 % of control and 190 % of control
Clc1ccc(C2SC=Cc3ccccc32)cc1 (centres undefined),T/C,"dose: 25.0 mg/kg/injection, schedule: Q01DX009 (ip), vehicle: Klucel (hydroxypropylcellulose) (HPC)",114 % of control
same,T/C,[14],114 % of control
same,T/C,[11],118 % of control
same,T/C,[12],112 % of control
same,T/C,[13],103 % of control
CCOc1ccc(NC(=O)C(C(C)N2CCCCC2)N2CCCCC2)cc1 (centres undefined),T/C,[6],102 % of control
same,T/C,[1],94 % of control
same,T/C,[2],93 % of control
C=C1C(=O)[C@]23C[C@H]1CC[C@H]2[C@@]12CO[C@@H](O)[C@@H]1C(C)(C)[C@@H](O)C[C@@H]2OC3=O,T/C,[1],102 % of control
same,T/C,[2],102 % of control
NC(=O)SCC(N)C(=O)O (centres undefined),T/C,[2],92 % of control
same,T/C,[3],87 % of control
same,T/C,[4],96 % of control
Nc1cc(Cl)c2[nH]cnc2n1,T/C,"dose: 6.25 mg/kg/injection, schedule: Q01DX009 (ip), vehicle: water",102 % of control
same,T/C,"dose: 12.5 mg/kg/injection, schedule: Q01DX009 (ip), vehicle: distilled water + Tween-80",95 % of control
same,T/C,"dose: 12.5 mg/kg/injection, schedule: Q01DX009 (ip), vehicle: water",106 % of control
same,T/C,"dose: 25.0 mg/kg/injection, schedule: Q01DX009 (ip), vehicle: distilled water + Tween-80",88 % of control
same,T/C,"dose: 25.0 mg/kg/injection, schedule: Q01DX009 (ip), vehicle: water",110 % of control
same,T/C,"dose: 50.0 mg/kg/injection, schedule: Q01DX009 (ip), vehicle: distilled water + Tween-80",99 % of control
same,T/C,"dose: 50.0 mg/kg/injection, schedule: Q01DX009 (ip), vehicle: water",98 % of control
same,T/C,"dose: 100.0 mg/kg/injection, schedule: Q01DX009 (ip), vehicle: distilled water + Tween-80",96 % of control
same,T/C,"dose: 100.0 mg/kg/injection, schedule: Q01DX009 (ip), vehicle: water",100 % of control
same,T/C,"dose: 200.0 mg/kg/injection, schedule: Q01DX009 (ip), vehicle: water",100 % of control
CC(C)OC(CCCl)c1ccccc1 (centres undefined),T/C,[3],94 % of control
same,T/C,[4],87 % of control
same,T/C,[5],100 % of control
COC(C(=O)C(O)C(C)O)C1Cc2cc3cc(OC4CC(OC(C)=O)C(OC5CC(O)C(OC)C(C)O5)C(C)O4)cc(O)c3c(O)c2C(=O)C1OC1CC(OC2CC(OC3CC(C)(O)C(OC(=O)C(C)C)C(C)O3)C(O)C(C)O2)C(O)C(C)O1 (centres undefined),T/C,"dose: 0.5 mg/kg/injection, schedule: Q01DX009 (ip), vehicle: saline with Tween-80",158 % of control
same,T/C,"dose: 1.0 mg/kg/injection, schedule: Q01DX009 (ip), vehicle: saline with Tween-80",170 % of control
OC1(CSc2ccccc2)CCCCC1,T/C,[6],90 % of control and 105 % of control
same,T/C,[1],93 % of control and 102 % of control
same,T/C,[2],117 % of control and 95 % of control
same,T/C,[3],93 % of control and 102 % of control
same,T/C,[4],105 % of control
same,T/C,[5],89 % of control
COC(=O)[C@@]12OC[C@]34[C@H]([C@@H](O)[C@@H]1O)[C@@]1(C)CC(=O)C(O)=C(C)[C@@H]1C[C@H]3OC(=O)[C@H](OC(=O)CC(C)C)[C@@H]24,T/C,[15],156 % of control and 157 % of control
same,T/C,[16],180 % of control
CCC(C)C(O)C(C)C(=O)C(C)/C=C(\C)CC(C)C1OC(=O)C1C (centres undefined),T/C,"dose: 0.25 mg/kg/injection, schedule: Q01DX009 (ip), vehicle: saline + alcohol",96 % of control
same,T/C,"dose: 0.5 mg/kg/injection, schedule: Q01DX009 (ip), vehicle: saline + alcohol",98 % of control and 104 % of control
same,T/C,[15],99 % of control and 101 % of control
same,T/C,[16],96 % of control and 98 % of control
O=S(=O)(O)c1cc(N=C=S)ccc1/C=C/c1ccc(N=C=S)cc1S(=O)(=O)O,T/C,[7],96 % of control
same,T/C,[8],95 % of control
same,T/C,[9],91 % of control
same,T/C,[10],86 % of control
